Key:
[1] = target: DNA gyrase (Escherichia coli); assay: Antibacterial activity against Escherichia coli DNA gyrase
[2] = target: DNA topoisomerase I (Escherichia coli); assay: Antibacterial activity against Escherichia coli DNA topoisomerase I
[3] = target: DNA gyrase (Micrococcus luteus); assay: Antibacterial activity against Micrococcus luteus DNA gyrase.

IC50 [1]	IC50 [2]	IC50 [3]	Structure (SMILES)
781 nM	187000 nM	625 nM	COC(=O)c1c(Br)c(OC)cc(O)c1CSC[C@H](Nc1nc(-c2ccc([N+](=O)[O-])cc2)cs1)C1=NOCCO1 [BAY-507952]
489 nM	195000 nM	326 nM	COC(=O)c1c(Br)c(OC)cc(O)c1CSC[C@H](Nc1nc(-c2ccc([N+](=O)[O-])cc2)cs1)C(=O)OC [BAY-507950]
–	–	62500 nM	COC(=O)c1c(Br)c(OC)cc(O)c1CSC[C@@H](Nc1nc(-c2ccc([N+](=O)[O-])cc2)cs1)C1=NOCCO1
157 nM	188000 nM	157 nM	COC(=O)c1c(Br)c(OC)cc(O)c1CSC[C@H](Nc1nc(-c2ccc([N+](=O)[O-])cc2)cs1)c1nc(C)no1 [Ro-616653]

From BindingDB's records for doi:10.1021/jm0010623 (Bayer, 2001)
